The IC50 is the concentration at which inhibition is half-maximal.

This note sets out measurements from paper PMC7549094 (Journal of Medicinal Chemistry, 2020).

For one data set, the target named is T1, hr Ad3 (Homo sapiens, UniProt P0DMS8).
T1 sequence (P0DMS8 1-318): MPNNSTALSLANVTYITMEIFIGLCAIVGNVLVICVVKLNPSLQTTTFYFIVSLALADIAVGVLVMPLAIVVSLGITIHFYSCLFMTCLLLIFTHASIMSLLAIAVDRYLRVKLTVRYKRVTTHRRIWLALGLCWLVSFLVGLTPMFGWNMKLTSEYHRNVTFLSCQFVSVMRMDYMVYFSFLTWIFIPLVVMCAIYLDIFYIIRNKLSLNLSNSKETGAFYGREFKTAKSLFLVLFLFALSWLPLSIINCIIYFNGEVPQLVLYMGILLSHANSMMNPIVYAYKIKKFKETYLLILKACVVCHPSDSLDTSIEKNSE
The experiment in a line: receptor profile (Table S4). It is filed as binding.

The target of another data set is T2, hr Al1A antag (Homo sapiens, UniProt P35348).
T2 sequence (P35348 1-466): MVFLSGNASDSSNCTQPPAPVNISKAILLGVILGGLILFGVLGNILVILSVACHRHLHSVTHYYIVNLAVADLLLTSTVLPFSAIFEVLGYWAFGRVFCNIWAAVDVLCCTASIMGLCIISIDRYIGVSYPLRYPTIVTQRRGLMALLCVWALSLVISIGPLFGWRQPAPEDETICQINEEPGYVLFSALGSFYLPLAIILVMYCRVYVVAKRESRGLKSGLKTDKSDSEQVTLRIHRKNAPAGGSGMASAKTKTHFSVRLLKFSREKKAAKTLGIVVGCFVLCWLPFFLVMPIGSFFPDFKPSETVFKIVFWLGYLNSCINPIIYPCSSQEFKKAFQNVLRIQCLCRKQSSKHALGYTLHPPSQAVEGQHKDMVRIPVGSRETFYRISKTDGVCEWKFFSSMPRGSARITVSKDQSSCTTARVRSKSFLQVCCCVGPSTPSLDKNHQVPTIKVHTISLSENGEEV
The data set can be described thus: receptor profile (Table S4). It is filed as biochemical.

The target in a further data set is T3, hr Al2A antag (Homo sapiens, UniProt P08913).
T3 sequence (P08913 1-465): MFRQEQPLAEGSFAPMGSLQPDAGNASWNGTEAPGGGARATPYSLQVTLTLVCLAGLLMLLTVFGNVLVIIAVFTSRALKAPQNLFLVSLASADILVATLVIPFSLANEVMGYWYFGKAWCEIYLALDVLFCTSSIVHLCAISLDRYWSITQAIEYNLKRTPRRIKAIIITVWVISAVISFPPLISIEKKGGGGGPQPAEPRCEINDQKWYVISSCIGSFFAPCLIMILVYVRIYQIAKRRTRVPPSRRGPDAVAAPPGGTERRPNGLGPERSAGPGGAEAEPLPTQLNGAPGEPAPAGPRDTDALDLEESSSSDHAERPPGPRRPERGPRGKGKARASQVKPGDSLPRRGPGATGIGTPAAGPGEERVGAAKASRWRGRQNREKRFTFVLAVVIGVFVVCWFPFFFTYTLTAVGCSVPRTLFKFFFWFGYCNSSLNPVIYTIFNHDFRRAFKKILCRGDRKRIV
The experiment in a line: receptor profile (Table S4). It is filed as biochemical.

A further data set has as its target T4, h AdT (Homo sapiens, UniProt Q99808).
T4 sequence (Q99808 2-456 limits assumed): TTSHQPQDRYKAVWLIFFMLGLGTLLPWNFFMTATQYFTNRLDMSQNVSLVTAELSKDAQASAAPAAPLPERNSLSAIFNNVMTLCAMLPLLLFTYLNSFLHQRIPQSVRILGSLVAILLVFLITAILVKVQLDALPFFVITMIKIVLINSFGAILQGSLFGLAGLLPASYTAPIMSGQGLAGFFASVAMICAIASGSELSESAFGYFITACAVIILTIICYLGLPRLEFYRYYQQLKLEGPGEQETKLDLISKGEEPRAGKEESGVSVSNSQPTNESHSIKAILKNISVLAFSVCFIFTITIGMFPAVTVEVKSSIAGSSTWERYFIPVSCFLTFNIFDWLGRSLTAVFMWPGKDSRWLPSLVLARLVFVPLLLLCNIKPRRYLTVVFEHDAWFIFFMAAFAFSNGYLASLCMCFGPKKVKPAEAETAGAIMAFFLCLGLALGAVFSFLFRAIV
The data set can be described thus: receptor profile (Table S4). It is filed as binding.

Another data set addresses hr CB1 antag (Homo sapiens, UniProt P21554). The experiment in a line: receptor profile (Table S4). It is filed as biochemical.
For another data set, the target named is hr 5-HT2A ag (Homo sapiens, UniProt P28223). The experiment in a line: receptor profile (Table S4). It is filed as biochemical.
Chain of hr 5-HT2A ag (P28223 whole entry): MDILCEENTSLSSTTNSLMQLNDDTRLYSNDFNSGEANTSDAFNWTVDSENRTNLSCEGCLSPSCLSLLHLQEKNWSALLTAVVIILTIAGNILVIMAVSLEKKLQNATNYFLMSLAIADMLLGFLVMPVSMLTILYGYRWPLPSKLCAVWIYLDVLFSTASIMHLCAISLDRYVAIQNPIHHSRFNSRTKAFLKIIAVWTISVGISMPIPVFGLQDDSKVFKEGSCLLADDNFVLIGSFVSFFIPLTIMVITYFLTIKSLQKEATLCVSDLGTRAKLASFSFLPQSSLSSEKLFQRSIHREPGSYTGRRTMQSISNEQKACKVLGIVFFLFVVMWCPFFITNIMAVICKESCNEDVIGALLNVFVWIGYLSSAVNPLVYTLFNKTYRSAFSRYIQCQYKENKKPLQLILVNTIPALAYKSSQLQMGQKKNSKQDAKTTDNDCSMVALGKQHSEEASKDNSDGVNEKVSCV
In a further data set the target is hERG (Homo sapiens, UniProt Q12809). The data set can be described thus: hERG manual patch clamp assay. The note with it: read-out: hERG channel IC50. For orientation: The hERG channel carries a current that helps repolarise heart muscle cells.
Chain of hERG (Q12809 whole entry): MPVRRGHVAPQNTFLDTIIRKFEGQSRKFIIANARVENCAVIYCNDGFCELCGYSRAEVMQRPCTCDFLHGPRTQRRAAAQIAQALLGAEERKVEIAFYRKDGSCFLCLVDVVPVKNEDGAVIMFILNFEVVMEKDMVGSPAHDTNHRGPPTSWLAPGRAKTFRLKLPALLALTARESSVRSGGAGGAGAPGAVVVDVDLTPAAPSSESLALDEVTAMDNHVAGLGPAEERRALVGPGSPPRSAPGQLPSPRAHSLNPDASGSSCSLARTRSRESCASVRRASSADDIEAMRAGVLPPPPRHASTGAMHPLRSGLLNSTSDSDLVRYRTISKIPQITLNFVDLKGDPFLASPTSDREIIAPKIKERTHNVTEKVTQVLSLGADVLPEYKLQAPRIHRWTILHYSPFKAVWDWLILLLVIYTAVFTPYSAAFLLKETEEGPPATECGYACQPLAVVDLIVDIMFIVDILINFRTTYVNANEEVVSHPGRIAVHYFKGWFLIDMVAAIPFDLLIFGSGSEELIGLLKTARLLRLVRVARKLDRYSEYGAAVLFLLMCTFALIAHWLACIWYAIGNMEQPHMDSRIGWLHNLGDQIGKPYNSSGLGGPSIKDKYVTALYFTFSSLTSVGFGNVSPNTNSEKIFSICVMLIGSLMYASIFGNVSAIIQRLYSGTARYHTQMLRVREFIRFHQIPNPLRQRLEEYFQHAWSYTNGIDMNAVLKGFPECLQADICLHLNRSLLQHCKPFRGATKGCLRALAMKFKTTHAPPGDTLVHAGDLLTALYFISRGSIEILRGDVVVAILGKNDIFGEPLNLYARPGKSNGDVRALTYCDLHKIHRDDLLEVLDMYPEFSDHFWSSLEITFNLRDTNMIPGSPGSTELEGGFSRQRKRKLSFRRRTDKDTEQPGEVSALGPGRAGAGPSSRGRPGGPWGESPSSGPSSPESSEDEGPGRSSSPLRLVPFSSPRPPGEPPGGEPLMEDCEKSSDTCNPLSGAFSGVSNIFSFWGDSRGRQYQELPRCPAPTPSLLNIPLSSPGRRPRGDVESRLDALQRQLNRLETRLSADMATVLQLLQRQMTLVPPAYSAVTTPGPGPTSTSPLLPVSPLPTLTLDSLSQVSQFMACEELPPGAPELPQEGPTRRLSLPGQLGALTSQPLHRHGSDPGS

Chain of hr CB1 antag (P21554 whole entry): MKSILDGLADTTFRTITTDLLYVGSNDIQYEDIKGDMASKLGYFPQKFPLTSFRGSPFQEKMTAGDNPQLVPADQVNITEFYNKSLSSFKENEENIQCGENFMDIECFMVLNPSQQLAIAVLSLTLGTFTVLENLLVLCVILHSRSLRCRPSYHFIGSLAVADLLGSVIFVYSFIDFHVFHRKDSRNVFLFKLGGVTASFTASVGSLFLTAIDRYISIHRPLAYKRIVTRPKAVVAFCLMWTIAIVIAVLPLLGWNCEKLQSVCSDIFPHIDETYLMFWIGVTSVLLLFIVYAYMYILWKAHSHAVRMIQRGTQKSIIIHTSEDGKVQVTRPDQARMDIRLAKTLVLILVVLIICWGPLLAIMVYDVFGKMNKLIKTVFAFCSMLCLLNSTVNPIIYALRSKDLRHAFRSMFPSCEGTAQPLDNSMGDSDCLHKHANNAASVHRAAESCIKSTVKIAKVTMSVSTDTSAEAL

As for `Cc1nc(C)c(C(=O)Nc2ccc(F)c(-c3nc4ncc(-c5ncccc5C)cn4n3)c2)o1` [compound 1, N-(4-Fluoro-3-(6-(3-methylpyridin-2-yl)-[1,2,4]triazolo[1,5-a]pyrimidin-2-yl)phenyl)-2,4-dimethyloxazole-5-carboxamide], the EC50/IC50 at hr Ad3 (hr Ad3), at hr Al1A antag (hr Al1A antag), at hr Al2A antag (hr Al2A antag), on h AdT (h AdT), at hr CB1 antag (hr CB1 antag) and on hr 5-HT2A ag (hr 5-HT2A ag) was > 30 µM in each case. The inhibition at 10 µM on hr Ad3 (read-out: % inh/act @ 10 µM) was 8%; at hr Al1A antag (read-out: % inh/act @ 10 µM) it was -4%; at hr Al2A antag (read-out: % inh/act @ 10 µM), 20%; at h AdT (read-out: % inh/act @ 10 µM), 28%; on hr CB1 antag (read-out: % inh/act @ 10 µM), -47%; on hr 5-HT2A ag (read-out: % inh/act @ 10 µM), -7%. In addition, the inhibition at 30 µM was 37% on hr Ad3 (read-out: % inh/act @ 30 µM); 8% on hr Al1A antag (read-out: % inh/act @ 30 µM); 22% at hr Al2A antag (read-out: % inh/act @ 30 µM); 42% at h AdT (read-out: % inh/act @ 30 µM); -57% at hr CB1 antag (read-out: % inh/act @ 30 µM); -10% on hr 5-HT2A ag (read-out: % inh/act @ 30 µM). For the same compound, the IC50 on hERG is > 30 µM.
